Test results reported in US7863416B2, “Nociceptin-based analgesics” (Synvax, Inc., priority 2001, dated 2011).
Read-outs that look alike come from different tables or passages of the source. Square brackets hold non-standard residues; d marks the D form. Peptide text beside a SMILES is read from it. * marks the point of attachment. Phe(4-CH2NH2) = NCc1ccc(C[C@H](N)C(=O)O)cc1; Tyr(3-Cl) = N[C@@H](Cc1ccc(O)c(Cl)c1)C(=O)O; Tyr(BN∗,3-Cl) = not defined here; Hexanoyl = CCCCCC(=O)*; Pentanoyl = CCCCC(=O)*

How the values were obtained:
[1] = target: T1, human ORL1 (Homo sapiens, UniProt P41146); assay: Antagonism of nociceptin-stimulated [35S]GTPγS binding (inhibition, Schild analysis); assay type: biochemical
T1 construct: expressed in transfected cells; host or cells: CHO cells (G418-selected)

[2] = target: T1, human ORL1; assay: Stimulation of [35S]GTPγS binding in membranes of CHO cells transfected with human ORL-1; assay type: biochemical; conditions: for [35S]GTPγS Binding Percent Stimulation: relative to nociceptin; for agonist/antagonist character at ORL1: in words; for EC50 ± SEM, stimulation of [35S]GTPγS binding: Table 6; for Emax: read-out: % Stimulation ± SEM of [35S]GTPγS binding
Protocol: First, CHO cells transfected with human ORL-1 are scraped from tissue culture dishes into 20 mM HEPES, 1 mM EDTA, and then centrifuged at 500×g for 10 minutes. The cells are then re-suspended in this buffer and homogenized using a Polytron Homogenizer.
The cellular homogenate is next centrifuged at 20,000×g for 20 minutes. Following this, the resulting pellet is re-suspended in a buffer containing 20 mM HEPES, 10 mM MgCl2, and 100 mM NaCl, having a resulting pH of 7.4. The suspension is then re-centrifuged at 20,000×g and suspended once more in the above-listed buffer. The pellet may be frozen at −70° C. prior to the final centrifugation. For the binding assay, membranes (10-20 μg protein) are incubated with [^35S]GTPγγS (50 pM), GDP (usually 10 μM), and the desired compound. The total volume of the mixture is 1 ml, which is incubated for 60 min at 25° C.
Following incubation, samples are filtered over glass fiber filters and counted. […]
In these [^35S]GTPγS assays, binding was conducted as described above. EC50 values and percent stimulation were determined using the program Prism.

[3] = target: T1, human ORL1; assay: [3H]nociceptin binding to membranes of CHO cells transfected with human ORL1; conditions: for Hill Coefficient: Table 5
[4] = In vivo test for analgesic activity and potentiation of morphine analgesia
[5] = tested on: mice; assay: Tail flick assay, peptide combined with morphine and/or N/OFQ (morphine-induced analgesia); assay type: in vivo
Protocol: The modified Boniferroni Test was used for these planned comparisons (p value was set at P<0.036). Doses were determined based on the potency of the compounds tested.
The antagonist was next assayed for the ability to reverse the inhibition of morphine-induced analgesia. In this assay, the control received morphine alone, while test animals received morphine +3 nmol of the antagonist, morphine +10 nmol of the antagonist. […] For each of these animals, response was measured at 5, 10, and 20 minutes after intracerebroventricular injection.
The agonist VII-87-B was further investigated by evaluating its ability to reverse morphine-induced analgesia. In this assay, the control animal received 10 nmols of morphine alone, while test animals received morphine +0.1 nmol of the agonist, morphine +1.0 nmol of the agonist, or morphine +10.0 nmol of the agonist. For each of these animals, response was measured at 5, 10, and 20 minutes after intracerebroventricular injection.
The agonist VII-39-D was then further investigated by evaluating its ability to reverse morphine-induced analgesia. In this assay, the control animal received 10 nmols of morphine alone, while test animals received morphine +0.1 nmol of the agonist, morphine +1.0 nmol of the agonist, or morphine +10.0 nmol of the agonist. For each of these animals, response was measured at 5, 10, and 20 minutes after intracerebroventricular injection.

[6] = tested on: mice; assay: Tail flick assay, peptide alone, intracerebroventricular injection

T1 sequence (P41146 whole entry): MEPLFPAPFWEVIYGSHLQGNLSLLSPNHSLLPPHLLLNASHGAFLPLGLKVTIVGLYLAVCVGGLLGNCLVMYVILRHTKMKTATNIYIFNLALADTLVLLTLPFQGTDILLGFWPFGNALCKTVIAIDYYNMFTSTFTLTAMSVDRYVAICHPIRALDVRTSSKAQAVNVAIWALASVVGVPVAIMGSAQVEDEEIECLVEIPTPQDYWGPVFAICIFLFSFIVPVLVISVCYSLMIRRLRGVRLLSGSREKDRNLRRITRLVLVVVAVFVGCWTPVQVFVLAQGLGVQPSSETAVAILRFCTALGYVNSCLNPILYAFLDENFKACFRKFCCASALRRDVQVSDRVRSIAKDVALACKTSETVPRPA

**Q.** For CCCCCC(=O)N[C@@H](CCCNC(=N)N)C(=O)N[C@@H](Cc1ccc(O)cc1)C(=O)N[C@@H](Cc1ccc(O)cc1)C(=O)N[C@@H](CCCNC(=N)N)C(=O)N[C@@H](Cc1c[nH]c2ccccc12)C(=O)N[C@@H](CCCNC(=N)N)C(N)=O [IV-17-C, Hexanoyl-RYYRWR-NH2] (Hexanoyl-RYYRWR-NH2), which “potency as antagonist relative to N^1-Phe-nociceptin (1-13)NH2” value ([1]; FIG. 2) is on record?
**A.** at least 10 times

**Q.** What about the “stimulation of [35S]GTPγS binding remaining” value ([1]; at 1 and 10 μM, with 10 nM nociceptin) of the same compound?
**A.** 20%

**Q.** What about the “[35S]GTPγS Binding Percent Stimulation” value ([2]; Table 1) of the same compound?
**A.** 18%

**Q.** What about the “agonist/antagonist character at ORL1” value [2] of the same compound?
**A.** very low efficacy compound

**Q.** And the IC50 [3]?
**A.** 0.0026 µM

**Q.** What about the “analgesic activity and potentiation of morphine analgesia in vivo” value [4] of the same compound?
**A.** no measurable in vivo activity

**Q.** What does the source list for CCCCC(=O)N[C@@H](CCCNC(=N)N)C(=O)N[C@@H](Cc1ccc(O)cc1)C(=O)N[C@@H](Cc1ccc(O)cc1)C(=O)N[C@@H](CCCNC(=N)N)C(=O)N[C@@H](Cc1c[nH]c2ccccc12)C(=O)N[C@@H](CCCNC(=N)N)C(N)=O [VII-7-B, Pentanoyl-Arg-Tyr-Tyr-Arg-Trp-Arg-NH2] (Pentanoyl-RYYRWR-NH2)?
**A.** shift of nociceptin dose response curve ([1]; FIG. 9): dose-dependent parallel shift; pA2, Schild analysis ([1]; nociceptin dose response curve): 8.99±0.05; slope, Schild analysis ([1]; nociceptin dose response curve): −1.02; EC50 ± SEM, stimulation of [35S]GTPγS binding [2]: FLAT; agonist/antagonist character at ORL1 [2]: very potent antagonist; Emax [2]: < 20%; Hill Coefficient [3]: 0.8; effect on morphine-induced analgesia ([5]; 10 nmol alone or with N/OFQ, 5 minutes post-injection): reduction in morphine-induced analgesia; effect on nociceptin action on morphine analgesia ([5]; 10 and 20 minutes post injection): did not alter the effects of nociceptin; reversal of nociceptin's inhibition of morphine-induced analgesia ([5]; morphine + nociceptin + 3 or 10 nmol antagonist icv, FIG. 11): did not reverse the inhibition of morphine-induced analgesia; analgesic effect (% antinociception) ([6]; 10.0 and 30.0 nmol icv, 10 and 20 minutes post-injection): showed analgesic properties

**Q.** What does the source list for CC(=O)N[C@@H](CCCNC(=N)N)C(=O)N[C@@H](Cc1ccc(O)cc1)C(=O)N[C@@H](Cc1ccc(CN)cc1)C(=O)N[C@@H](CCCNC(=N)N)C(=O)N[C@@H](Cc1c[nH]c2ccccc12)C(=O)N[C@@H](CCCNC(=N)N)C(N)=O [VII-79-A, Ac-Arg-Tyr-Phe(4-CH2NH2)-Arg-Trp-Arg-NH2] (Ac-RY[Phe(4-CH2NH2)]RWR-NH2)?
**A.** EC50 ± SEM, stimulation of [35S]GTPγS binding [2]: FLAT; Emax [2]: < 20%; Hill Coefficient [3]: 0.89

**Q.** With CC(=O)N[C@@H](CCCNC(=N)N)C(=O)N[C@@H](Cc1ccc(O)c(Cl)c1)C(=O)N[C@@H](Cc1ccc(O)cc1)C(=O)N[C@@H](CCCNC(=N)N)C(=O)N[C@@H](Cc1c[nH]c2ccccc12)C(=O)N[C@@H](CCCNC(=N)N)C(N)=O [VII-87-B, Ac-Arg-Tyr(3-Cl)-Tyr-Arg-Trp-Arg-NH2] (Ac-R[Tyr(3-Cl)]YRWR-NH2) as the compound, how does the “agonist/antagonist character at ORL1” value [2] read?
**A.** agonist

**Q.** And the Emax [2]?
**A.** 72%

**Q.** And the “reversal of morphine-induced analgesia” value ([5]; morphine 10 nmol + 0.1, 1.0, 10.0 nmol agonist icv, at 10 and 20 minutes with 10 nmol)?
**A.** dose-dependent reversal of morphine-induced analgesia

**Q.** What about the “effect on nociception (% antinociception)” value ([6]; 10 nmol icv, 5, 10 and 20 minutes post-injection) of the same compound?
**A.** induced pro-nociception

**Q.** What does the source list for “Ac-Arg-Tyr(BN*, 3-Cl)-Tyr-Arg-Trp-Arg-NH2 (Ac-R[Tyr(BN∗,3-Cl)]YRWR-NH2; reading uncertain; also: printed as Ac-Arg-Tyr(BN*, 3-Cl)-Tyr-Arg-Trp-Arg-NH2) [VII-39-D]”?
**A.** agonist/antagonist character at ORL1 [2]: full agonist; Hill Coefficient [3]: 1.03; effect on morphine-induced analgesia ([5]; morphine 10 nmol + 1.0 and 10 nmol agonist icv, 5, 10 and 20 minutes): attenuation of morphine-induced analgesia; effect on nociception (% antinociception) ([6]; 0.1, 1.0 or 10.0 nmol icv, 5, 10 and 20 minutes post-injection): did not induce anti- or pro-nociception

**Q.** What does the source list for Ac-RY(D)YR(D)WRNH2 [IV-12-B]?
**A.** EC50 ([2]; Table 1, read-out: [35S]GTPγS Binding EC50): > 10 µM; [35S]GTPγS Binding Percent Stimulation ([2]; Table 1): <10%; IC50 ([3]; read-out: [3H]nociceptin Binding IC50, Table 1): 1.15 µM

**Q.** Which results are given for “β-Nva-Arg-Tyr-Tyr-Arg-Trp-Arg-NH2 (βNva-RYYRWR-NH2) [VII-2-A]”?
**A.** EC50 ± SEM, stimulation of [35S]GTPγS binding [2]: FLAT; Hill Coefficient [3]: 1.0
